From US9233979B2, “Compounds that are ERK inhibitors” (Merck Sharp & Dohme Corp., priority 2012, dated 2016) come the findings set out here.

SMILES strings stand for the structures.

The term IC50 denotes the midpoint of a concentration-inhibition curve.

In the first test the target is phosphorylated active hERK2 enzyme (Homo sapiens (Human), UniProt P28482). Briefly: Active Human ERK2 (hERK2) Activity Assay (IMAP-FP). It is filed as biochemical. The note with it: Table 5, 0.5 nM hERK2, 30 μM ATP, 10 point titration, read-out: AERK2 IC50. An outline of the steps: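 IMAP detection beads in buffer with 24 mM NaCl stopped the reaction, and fluorescence polarization was read after 60 min binding.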
phosphorylated active hERK2 enzyme, sequence (P28482 whole entry): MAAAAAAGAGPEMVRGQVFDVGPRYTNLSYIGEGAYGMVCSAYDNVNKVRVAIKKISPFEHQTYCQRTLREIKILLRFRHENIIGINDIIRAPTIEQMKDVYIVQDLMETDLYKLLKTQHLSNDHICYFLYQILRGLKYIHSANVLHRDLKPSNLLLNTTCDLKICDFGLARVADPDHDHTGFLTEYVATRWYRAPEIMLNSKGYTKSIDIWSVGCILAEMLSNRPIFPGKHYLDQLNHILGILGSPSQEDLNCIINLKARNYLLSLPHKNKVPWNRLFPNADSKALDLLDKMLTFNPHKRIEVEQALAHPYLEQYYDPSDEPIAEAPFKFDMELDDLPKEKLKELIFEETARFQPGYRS
As to `C[C@@H](NC(=O)Nc1cc2[nH]nc(N3CCOCC3)c2cn1)c1ccc(F)cc1` [Example 31, 1-[(1R)-1-(4-fluorophenyl)ethyl]-3-(3-morpholin-4-yl-1H-pyrazolo[4,3-c]pyridin-6-yl)urea], the IC50 came to 0.4 nM.

Still in this test, the particulars now being: Table 6, 0.5 nM hERK2, 30 μM ATP, 10 point titration, read-out: AERK2 IC50.
On to `COC(=O)Nc1n[nH]c2cc(NC(=O)N[C@H](C)c3ccc(Cl)nc3)ncc12` [Example 311, methyl [6-({[(1R)-1-(6-chloropyridin-3-yl)ethyl]-carbamoyl}amino)-1H-pyrazolo[4,3-c]pyridin-3-yl]-carbamate], for which the IC50 stood at 19.1 nM.
Still for that read-out and setting: next, `C[C@@H](NC(=O)Nc1cc2[nH]nc(NC3CCC3)c2cn1)c1ccccc1` [Example 185, 1-[3-(cyclobutylamino)-1H-pyrazolo[4,3-c]pyridin-6-yl]-3-[(1R)-1-phenylethyl]urea]: 1.5 nM; `CCNc1n[nH]c2cc(NC(=O)NC(C)c3ccc(F)cn3)ncc12` (stereo not shown) [Example 284]: 33 nM.
Take `C[C@@H](NC(=O)Nc1cc2[nH]nc(NC(=O)CC3CCCCC3)c2cn1)c1ccccc1` [Example 203, 2-cyclohexyl-N-[6-({[(1R)-1-phenylethyl]-carbamoyl}amino)-1H-pyrazolo[4,3-c]pyridin-3-yl]-acetamide]: the IC50 came out at 3.6 nM.
On the same count and under the same terms, next, `CC(C)(O)[C@@H](NC(=O)Nc1cc2[nH]nc(NC(=O)OC3CCOC3)c2cn1)c1ccc(F)cc1` (stereo partly drawn) [Example 402, tetrahydrofuran-3-yl [6-({[(1S)-1-(4-fluorophenyl)-2-hydroxy-2-methyl-propyl]carbamoyl}amino)-1H-pyrazolo[4,3-c]-pyridin-3-yl]-carbamate]: 2.9 nM.
As for `Cn1cc2c(n1)CCN(c1n[nH]c3cc(NC(=O)N[C@@H](c4ccc(F)cc4)C(C)(C)O)ncc13)C2` [Example 126, 1-[(1S)-1-(4-fluorophenyl)-2-hydroxy-2-methylpropyl]-3-(2′-methyl-2,′4,′6,′7′-tetrahydro-1H-3,5′-bipyrazolo[4,3-c]pyridin-6-yl)urea], the IC50 was found to be 0.2 nM.
With `CCNc1n[nH]c2cc(NC(=O)NC(CC)c3ccccn3)ncc12` (stereo not shown) [Example 320, 1-(3-(ethylamino)-1H-pyrazolo[4,3-c]pyridin-6-yl)-3-(1-(pyridin-2-yl)propyl)urea], the IC50 came to 33 nM.
The same measure, in the same setting: next, `C[C@@H](NC(=O)Nc1cc2[nH]nc(NCC(F)(F)F)c2cn1)c1ccccc1` [Example 341, 1-[(1R)-1-phenylethyl]-3-{3-[(2,2,2-trifluoro-ethyl)amino]-1H-pyrazolo[4,3-c]-pyridin-6-yl}urea]: 2.4 nM.
Still for that read-out and setting: the same measure for `COC[C@@H](NC(=O)Nc1cc2[nH]nc(NC(=O)C(C)C)c2cn1)c1ccccc1` [Example 319, (S)-N-(6-(3-(2-methoxy-1-phenylethyl)ureido)-1H-pyrazolo[4,3-c]pyridin-3-yl)-isobutyramide]: 0.4 nM.
On the same count and under the same terms, the same measure for `COC[C@@H](NC(=O)Nc1cc2[nH]nc(Nc3ccccc3C#N)c2cn1)c1ccccc1` [Example 383, 1-{3-[(2-cyanophenyl)amino]-1H-pyrazolo[4,3-c]pyridin-6-yl}-3-[(1S)-2-methoxy-1-phenylethyl]urea]: 2280 nM.
As for `Cc1nc(NC(=O)N[C@H](C)c2ccccc2)cc2[nH]nc(N)c12` [Example 333, (R)-1-(3-amino-4-methyl-1H-pyrazolo[4,3-c]pyridin-6-yl)-3-(1-phenylethyl)urea], the IC50 was found to be 0.7 nM.
Still for that read-out and setting: next, `C[C@@H](NC(=O)Nc1cc2[nH]nc(NCCN3CCOCC3)c2cn1)c1ccccc1` [Example 194, 1-{3-[(2-morpholin-4-ylethyl)amino]-1H-pyrazolo[4,3-c]-pyridin-6-yl}-3-[(1R)-1-phenylethyl]urea]: 28.4 nM; `C[C@@H](NC(=O)Nc1cc2[nH]nc(NC(=O)N3CC(F)(F)C3)c2cn1)c1ccc(F)cc1` [Example 128, 3,3-difluoro-N-[6-({[(1R)-1-(4-fluorophenyl)ethyl]carbamoyl}amino)-1H-pyrazolo[4,3-c]pyridin-3-yl]-azetidine-1-carboxamide]: 3.4 nM; `C[C@@H](NC(=O)Nc1cc2[nH]nc(NC(=O)Oc3ccccc3)c2cn1)c1ccccc1` [Example 222, phenyl[6-({[(1R)-1-phenylethyl]-carbamoyl}amino)-1H-pyrazolo[4,3-c]pyridin-3-yl]-carbamate]: 3.6 nM.
As for `CCNc1n[nH]c2cc(NC(=O)NC3CNc4ccccc4C3)ncc12` (stereo not shown) [Example 232, 1-[3-(ethylamino)-1H-pyrazolo[4,3-c]pyridin-6-yl]-3-(1,2,3,4-tetrahydro-quinolin-3-yl)urea], the IC50 was determined as 18.6 nM.
Consider `COc1ccccc1CNC(=O)Nc1cc2[nH]nc(N)c2cn1` [Example 268, 1-(3-amino-1H-pyrazolo[4,3-c]pyridin-6-yl)-3-(2-methoxy-benzyl)urea], for which the IC50 is 10.7 nM.
Same read-out and setting: the same measure for `CCNc1n[nH]c2cc(NC(=O)NC3COc4ccccc43)ncc12` (stereo not shown) [Example 235, 1-(2,3-dihydro-1-benzofuran-3-yl)-3-[3-(ethylamino)-1H-pyrazolo[4,3-c]pyridin-6-yl]urea]: 334 nM.
The same measure, in the same setting: the same measure for `COC(=O)Nc1n[nH]c2cc(NC(=O)NCc3ccccc3OC(F)F)ncc12` [Example 296, methyl [6-({[2-(difluoromethoxy)-benzyl]carbamoyl}-amino)-1H-pyrazolo[4,3-c]-pyridin-3-yl}-carbamate]: 2.5 nM.
On the same count and under the same terms, next, `C[C@@H](NC(=O)Nc1cc2[nH]nc(N3CC4C5CCC(C)(O5)C4C3)c2cn1)c1ccc(F)cc1` (stereo partly drawn) [Example 376, 1-[(1R)-1-(4-fluorophenyl)ethyl]-3-[3-(4-methyl-octahydro-2H-4,7-epoxyisoindol-2-yl)-1H-pyrazolo[4,3-c]-pyridin-6-yl]urea]: 13.8 nM; `CCNc1n[nH]c2cc(NC(=O)N[C@@H](c3ccc(F)cc3)C(C)(C)O)ncc12` [Example 448, 1-[3-(ethylamino)-1H-pyrazolo[4,3-c]pyridin-6-yl]-3-[(1S)-1-(4-fluorophenyl)-2-hydroxy-2-methylpropyl]urea]: 0.4 nM.
As for `COC[C@@H](NC(=O)Nc1cc2[nH]nc(N3CCC(OC)CC3)c2cn1)c1ccccc1` [Example 415, 1-[(1S)-2-methoxy-1-phenylethyl]-3-[3-(4-methoxypiperidin-1-yl)-1H-pyrazolo[4,3-c]pyridin-6-yl]urea], the IC50 worked out at 1 nM.
The same measure, in the same setting: the same measure for `CC(C)(O)[C@@H](NC(=O)Nc1cc2[nH]nc(NC(=O)N3C[C@H]4COC[C@H]4C3)c2cn1)c1ccc(F)cc1` [Example 457, (3aR,6aS)-N-(6-(3-((S)-1-(4-fluorophenyl)-2-hydroxy-2-methylpropyl)-ureido)-1H-pyrazolo[4,3-c]-pyridin-3-yl)-tetrahydro-1H-furo[3,4-c]pyrrole-5(3H)-carboxamide]: 3.7 nM.
Still for that read-out and setting: the same measure for `C[C@@H]1CN(c2n[nH]c3cc(NC(=O)N[C@@H](c4ccccc4)C(C)(C)O)ncc23)C[C@H](C(F)(F)F)O1` [Example 103, 1-[(1S)-2-hydroxy-2-methyl-1-phenylpropyl]-3-{3-[(2R,6R)-2-methyl-6-(trifluoromethyl)-morpholin-4-yl]-1H-pyrazolo[4,3-c]-pyridin-6-yl}urea]: 1.1 nM.
The same measure, in the same setting: the same measure for `CC(CN1CCOCC1)Nc1n[nH]c2cc(NC(=O)N[C@H](C)c3ccccc3)ncc12` (stereo partly drawn) [Example 175, 1-{3-[(1-methyl-2-morpholin-4-ylethyl)amino]-1H-pyrazolo[4,3-c]pyridin-6-yl}-3-[(1R)-1-phenylethyl]urea]: 33.8 nM.
